Assay results as given in the METLIN SMRT retention time set (Domingo-Almenara et al. 2019).

assay: gradient 5% acetonitrile 3 min, to 50% in 2 min, to 85% in 15 min, held 3 min, 100 µL/min; conditions: column: Zorbax Extend-C18 2.1 x 50 mm; eluents: water / acetonitrile, 0.1% formic acid
In short: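 The system's dead and dwell volumes were 40 μL and 900 μL, with a Zorbax Extend-C18 column (2.1 × 50 mm, 1.8 μm) run at 100 μL/min in water and acetonitrile containing 0.1% formic acid each. Pure standards were analyzed in mixtures of ~100 molecules by HPLC–quadrupole time-of-flight mass spectrometry in positive and negative ionization mode. Retention time was assigned from computationally picked, manually inspected adduct peaks.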

Row | RP-LC retention time [s] | SMILES
1 | 1030 | COc1ccc(-c2nc3cc(F)ccc3s2)cc1OC
2 | 640 | CC1CCC(NC(=O)C2c3ccccc3C(=O)N2CCCN2CCOCC2)CC1 (stereo not drawn)
3 | 1090 | Cc1ccccc1-c1noc(Cc2nnc(-c3cc(F)cc(F)c3)o2)n1
4 | 803 | CCN1C(=O)CCc2cc(NS(=O)(=O)Cc3ccccc3Cl)ccc21
5 | 636 | CCC(=O)N(C1CCOCC1)C1CCN(Cc2ccc(C)cc2C)CC1
6 | 788 | O=C(CSc1nnc(-c2ccncc2)o1)N1CCCc2ccccc21
7 | 631 | CCc1cc(=O)n(CC(=O)NCc2ccc(OC)cc2)c(N)n1
8 | 837 | CCC1Oc2ccc(S(=O)(=O)N3CCC(C(=O)Nc4cc(C)cc(C)c4)CC3)cc2NC1=O (stereo not drawn)
9 | 902 | COc1cc(-c2noc(C3CC(=O)N(c4ccc(C)cc4)C3)n2)cc(OC)c1OC (stereo not drawn)
10 | 814 | COc1ccc(CNC2=NCCNC23CCN(S(=O)(=O)c2ccc(C(C)C)cc2)CC3)cc1
11 | 648 | NC(=O)Cc1csc(SCC(=O)c2ccc3c(c2)OCO3)n1
12 | 913 | CC(C)c1ccc(NC(=O)C2CCN(S(=O)(=O)c3ccc4[nH]c(=O)sc4c3)CC2)cc1
13 | 1180 | CCc1nc2cc(-c3noc(-c4ccc(OC)cc4)n3)ccc2o1
14 | 719 | CC(=O)Nc1cccc2c(C(=O)NC3CCCC3)ccnc12
15 | 779 | CCn1c(=O)c2c(cc(C)n2C)n(CC(=O)Nc2cc(OC)cc(OC)c2)c1=O
16 | 674 | CNC(=O)CSc1nnc(N2CCN(C(=O)c3cc(-c4ccccc4)on3)CC2)s1
17 | 985 | Cc1cc(F)ccc1NC(=O)COc1cc(C(F)(F)F)c2c(C)nn(C)c2n1
18 | 832 | Cc1ccccc1-c1noc(-c2cccn(CC(=O)NC3CCCC3)c2=O)n1
19 | 1000 | O=C(Cn1ccc2ccc(N3CCOCC3)nc21)N1CCN(c2ccc(Cl)cc2)CC1
20 | 903 | CC(C)n1nccc1-c1nnc(NC(=O)C(C)(C)Oc2ccc(Cl)cc2)o1
21 | 1030 | CCN1C(=O)c2cc(S(=O)(=O)Nc3cccc(C)c3C)ccc2Oc2cccnc21
22 | 582 | COc1cccc(-c2nnc3sc(CN4CCc5ccccc5C4)cn23)c1

Row | RP-LC retention time [s] | SMILES
23 | 709 | CCC(=O)N1CCc2[nH]nc(C(=O)NCCCc3ccccc3)c2C1
24 | 1040 | CC(C)c1cccc(NC(=O)c2nc(N3CCSCC3)c3cnn(C)c3n2)c1
25 | 1140 | CCOc1ccc(-c2noc(Cn3c(=O)n(C(C)CC)c(=O)c4ccccc43)n2)cc1OC (stereo not drawn)
26 | 1180 | Cc1ccc(-c2csc(Nc3ccc(F)cn3)n2)cc1C
27 | 675 | Cn1nc2n(c1=O)CCN(S(=O)(=O)c1ccccc1C(F)(F)F)CC2
28 | 645 | Cc1ccc2nc(N3CCN(C)CC3)c(-c3noc(C)n3)cc2c1
29 | 824 | COCCCNc1c(-c2cccc(F)c2)nc2sc(C(=O)N3CCCC3)c(C)n12
30 | 799 | Cc1ccccc1Nc1c(-c2ccccc2)nc2ccc(Br)cn12
31 | 921 | O=C(Nc1cccc(C(F)(F)F)c1)Nc1cnn(-c2ncc(N3CCCC3)cn2)c1
32 | 695 | O=C(CSc1nnc2ccccn12)Nc1nc(-c2ccccc2)ns1
33 | 958 | Cc1cc(CNC(=O)C(=O)Nc2cc(Cl)ccc2C#N)c(C)o1
34 | 896 | Nc1nc(N2CCC3(CC2)OCCO3)ncc1S(=O)(=O)c1ccc(Cl)cc1
35 | 1030 | COc1ccc(OC)c(S(=O)(=O)Cc2nc(-c3ccc(Cl)cc3)no2)c1
36 | 846 | Cc1ccc(-n2c(=O)c3c(cc(C)n3C)n(CC(=O)Nc3ccccc3C)c2=O)cc1
37 | 790 | O=C(c1ccccc1Cl)N(CCc1ccccc1)Cc1ccccn1
38 | 624 | COC[C@@H]1CN(S(=O)(=O)c2ccccc2)C[C@H]1c1ccncc1
39 | 770 | CCCN1CCn2cc(S(=O)(=O)Nc3ccc(OC)c(Cl)c3)cc2C1=O
40 | 847 | CCCn1nc(CNC(=O)Cc2ccsc2)c2ccccc21
41 | 1070 | Cc1cc(C(=O)N2CCN(c3cccc(Cl)c3)CC2)n(-c2ccccc2)n1
42 | 1060 | O=C1C2N=NN(Cc3nc(-c4ccccc4Br)no3)C2C(=O)N1c1ccc2c(c1)CCC2 (stereo not drawn)
43 | 670 | O=C(NCC1CCOCC1)Nc1ccc(F)cc1
44 | 716 | O=C(Cc1ccccc1Cl)N1CCCN(c2nc3cccnc3o2)CC1

Row | RP-LC retention time [s] | SMILES
45 | 715 | O=C(CC(SCCO)c1ccc([N+](=O)[O-])cc1)c1ccco1 (stereo not drawn)
46 | 1150 | Cc1ccc(C)c(NC(=O)Cn2ccc3ccc(-c4nnc(C)o4)cc32)c1
47 | 588 | Cc1ccn2cc(CNS(=O)(=O)c3ccc(-c4ccccc4)cc3)nc2c1
48 | 893 | COC(=O)c1ccc(-c2nc3cnccn3c2Nc2ccccc2OC)cc1
49 | 610 | COc1cccc(CN2CCc3nc(N4CCCC4)ncc3C2)c1OC
50 | 864 | COCCCn1cc(C(=O)Nc2cccc(C)n2)c2nn(-c3ccccc3)c(=O)c-2c1
51 | 1080 | Cc1csc(NC(=O)c2cn(Cc3cccc(F)c3)nc2OCc2cccc(F)c2)n1
52 | 826 | CCc1noc(NC(C)=O)c1-c1ccc(C)c(S(=O)(=O)Nc2cccc(C)c2)c1
53 | 559 | CC1CCN(c2ccc(CNc3nc4ccncc4n(C)c3=O)cc2)CC1
54 | 1230 | CCOc1ccc(-c2csc(Cc3nc(-c4ccc(OC)cc4)no3)n2)cc1
55 | 748 | CN1C(=O)Cc2cc(NC(=O)c3ccc(C(F)(F)F)cc3)ccc21
56 | 733 | Oc1ccc(-c2nc3ccc(Cl)cn3c2Nc2ccc(Cl)cc2)cc1
57 | 910 | O=C(NCc1cccs1)C1CCN(S(=O)(=O)c2cc(-c3noc(C4CC4)n3)cs2)CC1
58 | 637 | Nc1c2ccccc2nc2ccccc12
59 | 701 | O=S(=O)(Cc1ccccc1)N1CCCCC1c1nc(-c2cccnc2)n[nH]1 (stereo not drawn)
60 | 560 | Cc1nn(C)c2c(N3CCC(C(=O)N4CCN(CC(=O)N5CCOCC5)CC4)CC3)nccc12
61 | 811 | CCSc1nnc(-c2nn(C)c3c2CN(C(=O)c2cc(C)cc(C)c2)CC3)n1C
62 | 801 | COc1cc(NC(=O)N2CCc3cn(C)c4cccc(c34)C2)cc(OC)c1OC
63 | 646 | CCOC(=O)c1[nH]c(C)c(CCC(=O)N2CCC(C(=O)N3CCOCC3)CC2)c1C
64 | 668 | COc1cc([C@@H]2c3cc4c(cc3[C@H](O)[C@@H](CO)[C@@H]2C(=O)NCC(C)C)OCO4)cc(OC)c1OC
65 | 645 | CCCN1CCN(C(=O)CCc2c(C)c(C(=O)OCC)c(C)n2CC)CC1
66 | 1070 | COc1ccc(NC(=O)Cn2nc3cc(C)nc(Nc4ccc(F)c(C)c4)n3c2=O)cc1

Row | RP-LC retention time [s] | SMILES
67 | 766 | Cc1ccc(CNC(=O)C2(C)Cn3nc(C(=O)NCc4ccccc4)cc3C(=O)N2C)cc1 (stereo not drawn)
68 | 1040 | CC1CCN(S(=O)(=O)c2ccc3nn(Cc4ccccc4Cl)c(=O)n3c2)CC1
69 | 1070 | CC(CCc1ccccc1)NC(=O)CN1CCCN(Cc2ccccc2Cl)S1(=O)=O (stereo not drawn)
70 | 812 | Cc1nn(-c2ccc(Cl)cc2)c(C)c1S(=O)(=O)Nc1ccc(S(N)(=O)=O)cc1
71 | 595 | CCCNC(=O)C1CCN(c2ccc(SCC(=O)Nc3ccc(OC)c(OC)c3)nn2)CC1
72 | 655 | Cc1nc(CNC(=O)[C@H]2CCCN2S(=O)(=O)c2ccc3c(c2)oc(=O)n3C)cs1
73 | 766 | COc1cccc(-c2nc(-c3ccc4ncn(C(C)C)c4c3)no2)c1OC
74 | 716 | CC(=O)NCC(=O)N1[C@@H]2CC[C@H]1c1ccc(Nc3ncc(C(F)(F)F)c(NC4CCC4)n3)cc12
75 | 928 | O=C(Nc1ccc2c(c1)C(=O)Nc1ccccc1O2)c1nc2ccccc2s1
76 | 650 | O=C(Cn1cnc2nc(N3CCC(C(=O)NC4CC4)CC3)sc2c1=O)Nc1ccccc1
77 | 899 | CCOc1ccc2nc(Nc3ncc4c(n3)CC(c3cccc(Cl)c3)CC4=O)nc(C)c2c1 (stereo not drawn)
78 | 649 | CN1C(=O)[C@H]2CN(Cc3cccc(Cl)c3F)C[C@H]2C1=O
79 | 698 | CCOC(=O)c1c(CN2CCOCC2)n(C)c2cc(Br)c(OC)cc12
80 | 949 | CN(C)C(=O)c1csc(N2CCN(c3cccc(Cl)c3)CC2)n1
81 | 896 | Cc1ccc(CNC(=O)CCc2conc2-c2ccccc2)cc1
82 | 892 | O=C(CN1C(=O)CCCc2cc(S(=O)(=O)N3CCCC3)ccc21)Nc1ccc(Cl)cc1
83 | 689 | CCCNC(=O)C1CCN(c2ccc(SCC(=O)Nc3ccc(Br)cc3)nn2)CC1
84 | 836 | CCn1c(=O)n(CC)c2cc(S(=O)(=O)c3ccc(OC)cc3)c(NC(=O)C(C)C)cc21
85 | 717 | O=C(COc1ccccc1)N1CC(n2cc(COCC3CC3)nn2)C1
86 | 1110 | Cc1csc(-c2csc(S(=O)(=O)N3CCc4ccccc4C3)c2)n1
87 | 733 | COc1ccc(CC(=O)NC(C(=O)Nc2nc3ccccc3[nH]2)C(C)C)cc1Cl (stereo not drawn)

Row | SMILES | RP-LC retention time [s]
88 | CN(CCc1ccc(Cl)c(Cl)c1)[C@@H]1CCCC[C@@H]1N1CCCC1 | 956
